According to US8124834B2, “Use of active cytokinin synthase gene” (Riken, priority 2006, dated 2012):

What was measured:
[1] = system: AtLOG 1, 2, 3, 4, 5, 7 and 8 proteins; assay: Confirmation of LOG enzyme activity of Arabidopsis thaliana LOG homolog proteins (substrate specificity); format: biochemical; settings: purified AtLOG 1, 2, 3, 4, 5, 7 and 8 proteins, result stated for all together
Experimental: (§1) 3 μg of the recombinant LOG protein obtained in Example 1 was allowed to react with various types of cytokinins used as substrates. The following 8 types of cytokinin substrates were used: N^6-(delta-2-isopentenyl)adenine (iP), trans-zeatin (tZ), cis-zeatin (cZ), iP riboside (iPR), tZ riboside (tZR), cZ riboside (cZR), iPR 5′-monophosphate (iPRMP), and tZR 5′-monophosphate (tZRMP). As reaction conditions, 100 μl of a reaction solution containing 50 mM Tris-HCl, 1 mM MgCl2, and a 50 μM substrate, pH7 was incubated at 30° C. for 2 hours. Thereafter, 10 μl of 20% acetic acid was added to the reaction solution to terminate the reaction, and the reaction solution was then centrifuged at 15,000 rpm at a room temperature for 20 minutes. Thereafter, 20 μl of a supernatant was analyzed by liquid chromatography using HPLC (Waters Alliance 2695/PDA detector 2996). As a column, Symmetry C18, 3.5 μm, 2.1×100 mm cartridge (Waters) was used. For elution, solvent C (100% acetonitrile) and solvent D (2% acetic acid) were used.
The reaction specificity of the LOG protein to a nucleotide cytokinin form was analyzed. At the same time, the presence or absence of the reactivity of the LOG protein to AMP was also analyzed. […] The resultant was dissolved in 100 μl of 2% acetic acid, and the reaction product was then detected and quantified under the same conditions as those for the liquid chromatography of Example 2. […] In the case of iPRDP and iPRTP, the amount of a reaction solution was determined to be 100 μl, the mass of a protein used was determined to be 0.01 μg, and the reaction time was determined to be 2 minutes.
The enzyme activity of each of the purified AtLOG proteins was evaluated under the same reaction conditions as those of Example 2. […] In addition, the enzyme property of each AtLOG protein to iPRMP was determined in the same manner as in Example 5 (Table 4). In Table 4, the Km, Vmax and Kcat values were calculated based on a reaction under the optimal pH condition of each AtLOG protein.

LOG protein [2] = biological target: T1, LOG protein (Oryza sativa subsp. japonica, UniProt Q5ZC82); assay: Substrate specificity of LOG protein to nucleotide cytokinin forms and AMP; format: biochemical; design: the protein coding region of the LOG gene cDNA was inserted into pCOLD-I (TaKaRa), a His-tag protein expression vector; made in house; host or cells: E. coli BL21(DE3)[pG-Tf2]; settings: 0.02 μg LOG protein, 100 μM substrate, pH 6.5, 4 minutes (iPRDP, iPRTP: 0.01 μg, 2 minutes)
T1 sequence (Q5ZC82 1-242): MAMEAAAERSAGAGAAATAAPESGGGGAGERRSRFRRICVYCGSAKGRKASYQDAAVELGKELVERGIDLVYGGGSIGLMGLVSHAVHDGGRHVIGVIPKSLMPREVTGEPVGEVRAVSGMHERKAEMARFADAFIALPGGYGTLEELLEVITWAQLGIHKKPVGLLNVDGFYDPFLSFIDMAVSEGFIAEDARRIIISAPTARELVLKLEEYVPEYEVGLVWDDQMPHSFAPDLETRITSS
Experimental: The reaction specificity of the LOG protein to a nucleotide cytokinin form was analyzed. […] The following 7 types of substrates were used: iPRMP, tZRMP, dihydrozeatin riboside 5′-monophosphate (DZRMP), cZR 5′-monophosphate (cZRMP), iPR 5′-diphosphate (iPRDP), iPR 5′-triphosphate (iPRTP), and AMP. The reaction conditions are as follows. 0.02 μg of the LOG protein was used for a single reaction, and it was reacted with a 100 μM substrate in 200 μl of a reaction solution containing 50 mM Tris-HCl, 1 mM MgCl2, 1 mM DTT, pH 6.5. Thereafter, 0 minute and 4 minutes after initiation of the reaction, 600 μl of cold acetone was added to the reaction solution to terminate the reaction. The reaction solution was left at rest at −80° C. for 30 minutes, and it was then centrifuged at 15,000 rpm for 20 minutes. Thereafter, a supernatant was dried using a centrifugal thickener. […] Only the injection amount was changed to 50 μl. In the case of iPRDP and iPRTP, the amount of a reaction solution was determined to be 100 μl, the mass of a protein used was determined to be 0.01 μg, and the reaction time was determined to be 2 minutes.

LOG protein [3] = biological target: T1, LOG protein; assay: Detection of enzyme activity of recombinant LOG protein with cytokinin substrates (HPLC); format: biochemical; design: the protein coding region of the LOG gene cDNA was inserted into pCOLD-I (TaKaRa), a His-tag protein expression vector; made in house; host or cells: E. coli BL21(DE3)[pG-Tf2]; settings: 3 μg LOG protein, 50 μM substrate, pH7, 30° C., 2 hours, HPLC absorption at 270 nm
Experimental: as §1, with “The” for “3 μg of the recombinant LOG protein obtained in Example 1 was allowed to react with various types of cytokinins used as substrates. The”, “Thereafter, 20 μl of a supernatant was analyzed by liquid chromatography using HPLC (Waters Alliance 2695/PDA detector 2996). As a column, Symmetry C18, 3.5 μm, 2.1×100 mm cartridge (Waters) was used.” left out

LOG protein [4] = biological target: T1, LOG protein; assay: Measurement of Km value of LOG protein to iPRMP and tZRMP; format: biochemical; design: the protein coding region of the LOG gene cDNA was inserted into pCOLD-I (TaKaRa), a His-tag protein expression vector; made in house; host or cells: E. coli BL21(DE3)[pG-Tf2]; settings: 0.02 μg LOG protein
Experimental: In order to obtain the Km value of the LOG protein to typical substrates iPRMP and tZRMP, the following experiment was carried out. 0.02 μg of LOG protein was used for a single reaction, and it was reacted with a substrate in a substrate concentration of each of 5, 8, 15, 30 and 100 μM in 200 μl of a reaction solution containing 50 mM Tris-HCl, 1 mM MgCl2, 1 mM DTT, pH 6.5. Thereafter, 0 minute, 2 minutes and 4 minutes after initiation of the reaction, 600 μl of cold acetone was added to the reaction solution to terminate the reaction. The reaction solution was left at rest at −80° C. for 30 minutes, and it was then centrifuged at 15,000 rpm for 20 minutes. Thereafter, a supernatant was dried using a centrifugal thickener. The resultant was dissolved in 100 μl of 2% acetic acid, and a reaction product was then detected and quantified under the same conditions as those for the liquid chromatography of Example 2. Only the injection amount was changed to 50 μl. The aforementioned experiment was carried out three times, and the Km value was calculated.

LOG protein [5] = biological target: T1, LOG protein; settings: 3 μg LOG protein, 5 mM L-lysine, pH 6.0, 40° C., 60 minutes, HPLC absorption at 226 nm
From the text: As a column, Symmetry C18, 3.5 μm, 2.1×100 mm cartridge (Waters) was used.

| reactivity of AtLOG proteins to the substrate (substrate specificity) [1] | reactivity of LOG protein to the substrate (substrate specificity) (LOG protein [2]) | SMILES | reactivity of the substrate with recombinant LOG protein (conversion to base form) (LOG protein [3]) | Km (LOG protein [4]; substrate 5, 8, 15, 30 and 100 μM, pH 6.5, experiment carried out three times) [µM] | specific activity of the LOG protein (LOG protein [4]; substrate 5-100 μM, pH 6.5) [μmol/min^−1/mg^−1 protein] | reactivity of LOG protein to lysine (LOG protein [5]) |
| --- | --- | --- | --- | --- | --- | --- |
| almost no reactivity | no reactivity | Nc1ncnc2c1ncn2[C@@H]1O[C@H](COP(=O)(O)O)[C@@H](O)[C@H]1O [AMP] |  |  |  |  |
| almost no reactivity | no reactivity | CC(C)=CCNc1ncnc2c1ncn2[C@@H]1O[C@H](COP(=O)(O)OP(=O)(O)OP(=O)(O)O)[C@@H](O)[C@H]1O [iPRTP, iPR 5′-triphosphate] |  |  |  |  |

The next lines start with the compound.

| SMILES | reactivity of AtLOG proteins to the substrate (substrate specificity) [1] | reactivity of LOG protein to the substrate (substrate specificity) (LOG protein [2]) | reactivity of the substrate with recombinant LOG protein (conversion to base form) (LOG protein [3]) | Km (LOG protein [4]; substrate 5, 8, 15, 30 and 100 μM, pH 6.5, experiment carried out three times) [µM] | specific activity of the LOG protein (LOG protein [4]; substrate 5-100 μM, pH 6.5) [μmol/min^−1/mg^−1 protein] | reactivity of LOG protein to lysine (LOG protein [5]) |
| --- | --- | --- | --- | --- | --- | --- |
| CC(C)=CCNc1ncnc2c1ncn2[C@@H]1O[C@H](COP(=O)(O)OP(=O)(O)O)[C@@H](O)[C@H]1O [iPRDP, iPR 5′-diphosphate] | almost no reactivity | no reactivity |  |  |  |  |
| C/C(=C\CNc1ncnc2c1ncn2[C@@H]1O[C@H](COP(=O)(O)O)[C@@H](O)[C@H]1O)CO (relative stereo) [tZRMP, trans-zeatin riboside 5′-monophosphate] |  | uses as a substrate | completely converted | 22 ± 3.6 | 4.2 |  |
| NCCCC[C@H](N)C(=O)O [lysine, L-lysine] |  |  |  |  |  | did not exhibit reactivity |
